Assay results published in patent US5889013A, “Pyrimidine acyclonucleoside derivatives” (priority 1994, dated 1999).

Experiments:
[1] = Cytotoxicity to MT-4 cells not infected with HIV (MTT method); type: cell-based; details: human; MT-4 cells not infected with HIV, 6 days, 37° C., MTT; read-out: 50% cytotoxic concentration to MT-4 cells
Method: (§1) In RPMI 1640 culture medium supplemented with 10% heat-inactivated fetal bovine serum, 2 mM of L-glutamine, 100 U/mL of penicillin G and 100 μg/mL of streptomycin, MT-4 cells (HTLV-1 transformed T4-cell line) at a concentration of 1×10^4 /well in a flat-bottom, microtiter plate were infected with 500 TCID50 of HIV-1 (HTLV-IIIB strain). Immediately after virus infection, sample serially diluted with culture medium from stock solution prepared in dimethyl sulfoxide was added to each well in quadriplicate. After 6 days incubation at 37° C., the viability of mock and HIV-infected cells was determined by the 3-(4,5-dimethylthiazol-2-yl)-2,5-diphenyltetrazolium bromide (MTT) method. And also, the cytotoxicity of sample to MT-4 cells not infected with HIV was assessed in parallel with its antiviral activity under the same way as above.

HIV-1 (HTLV-IIIB strain) = assay: Inhibitory activity for HIV-induced cytopathogenicity (MT-4 cells, MTT method); type: cell-based; details: Human immunodeficiency virus 1, IIIB, MT4, 144 h, read-out: 50% inhibitory concentration of HIV infection
Method: as §1

| SMILES | CC50 at 144 h [1] [µM] | IC50 (HIV-1 (HTLV-IIIB strain)) [nM] |
| --- | --- | --- |
| CCc1c([Se]c2cccc(C)c2)n(COCCO)c(=S)[nH]c1=O [Compound 2, 5-ethyl-1-[(2-hydroxyethoxy)methyl]-6-[(3-methylphenyl)selenenyl]-2-thiouracil] | 32 | 40 |
| CCc1c([Se]c2cc(C)cc(C)c2)n(COCCO)c(=S)[nH]c1=O [Compound 3, 6-[(3,5-dimethylphenyl)selenenyl]-5-ethyl-1-[(2-hydroxyethoxy)methyl]-2-thiouracil] | 32.5 | 30 |
| Cc1cccc([Se]c2c(C(C)C)c(=O)[nH]c(=S)n2COCCO)c1 [Compound 5, 1-[(2-hydroxyethoxy)methyl]-5-isopropyl-6-[(3-methylphenyl)-selenenyl]-2-thiouracil] | 31.7 | 38 |
| Cc1cc(C)cc([Se]c2c(C(C)C)c(=O)[nH]c(=S)n2COCCO)c1 [Compound 6, 6-[(3,5-dimethylphenyl)selenenyl]-1-[(2-hydroxyethoxy)methyl]-5-isopropyl-2-thiouracil] | 32.4 | 8 |
| CCc1c([Se]c2cc(C)cc(C)c2)n(COCCO)c(=O)[nH]c1=O [Compound 9, 6-[(3,5-dimethylphenyl)selenenyl]-5-ethyl-1-[(2-hydroxyethoxy)-methyl]uracil] | 34.5 | 15 |
| Cc1cccc([Se]c2c(C(C)C)c(=O)[nH]c(=O)n2COCCO)c1 [Compound 11, 1-[(2-hydroxyethoxy)methyl]-5-isopropyl-6-[(3-methylphenyl)-selenenyl]uracil] | 30.5 | 15 |
| Cc1cc(C)cc([Se]c2c(C(C)C)c(=O)[nH]c(=O)n2COCCO)c1 [Compound 12, 6-[(3,5-dimethylphenyl)selenenyl]-1-[(2-hydroxyethoxy)methyl]-5-isopropyluracil] | 29.1 | 1.9 |
| CCOCn1c([Se]c2ccccc2)c(CC)c(=O)[nH]c1=S [Compound 15, 1-(ethoxymethyl)-5-ethyl-6-(phenylselenenyl)-2-thiouracil] | 26.1 | 24 |
| CCOCn1c([Se]c2cccc(C)c2)c(CC)c(=O)[nH]c1=S [Compound 16, 1-(ethoxymethyl)-5-ethyl-6-[(3-methylphenyl)selenenyl]-2-thiouracil] | 24.8 | 8 |
| CCOCn1c([Se]c2cc(C)cc(C)c2)c(CC)c(=O)[nH]c1=S [Compound 17, 6-[(3,5-dimethylphenyl)selenenyl]-1-(ethoxymethyl)-5-ethyl-2-thiouracil] | 28.8 | 8 |
| CCOCn1c([Se]c2cc(F)cc(F)c2)c(CC)c(=O)[nH]c1=S [Compound 18, 6-[(3,5-difluorophenyl)selenenyl]-1-(ethoxymethyl)-5-ethyl-2-thiouracil] | 7.8 | 14 |
| CCc1c([Se]c2ccccc2)n(COCc2ccccc2)c(=S)[nH]c1=O [Compound 19, 1-[(benzyloxy)methyl)-5-ethyl-6-(phenylselenenyl)-2-thiouracil] | 25.1 | 4 |
| CCc1c([Se]c2cccc(C)c2)n(COCc2ccccc2)c(=S)[nH]c1=O [Compound 20, 1-[(benzyloxy)methyl]-5-ethyl-6-[(3-methylphenyl)selenenyl]-2-thiouracil] | 43.4 | 0.8 |
| CCc1c([Se]c2cc(C)cc(C)c2)n(COCc2ccccc2)c(=S)[nH]c1=O [Compound 21, 1-[(benzyloxy)methyl]-6-[(3,5-dimethylphenyl)selenenyl]-5-ethyl-2-thiouracil] | 24.1 | 1.7 |
| CCOCn1c([Se]c2ccccc2)c(C(C)C)c(=O)[nH]c1=S [Compound 22, 1-(ethoxymethyl)-5-isopropyl-6-(phenylselenenyl)-2-thiouracil] | 30.1 | 1.5 |
| CCOCn1c([Se]c2cccc(C)c2)c(C(C)C)c(=O)[nH]c1=S [Compound 23, 1-(ethoxymethyl)-5-isopropyl-6-[(3-methylphenyl)selenenyl]-2-thiouracil] | 30.6 | 3.6 |
| CCOCn1c([Se]c2cc(C)cc(C)c2)c(C(C)C)c(=O)[nH]c1=S [Compound 24, 6-[(3,5-dimethylphenyl)selenenyl]-1-(ethoxymethyl)-5-isopropyl-2-thiouracil] | 31.7 | 1.6 |
| CCOCn1c([Se]c2cc(F)cc(F)c2)c(C(C)C)c(=O)[nH]c1=S [Compound 25, 6-[(3,5-difluorophenyl)selenenyl]-1-(ethoxymethyl)-5-isopropyl-2-thiouracil] | 19.7 | 27 |
| CC(C)c1c([Se]c2ccccc2)n(COCc2ccccc2)c(=S)[nH]c1=O [Compound 26, 1-[(benzyloxy)methyl]-5-isopropyl-6-(phenylselenenyl)-2-thiouracil] | 30.2 | 0.7 |

| SMILES | CC50 at 144 h [1] [µM] | IC50 (HIV-1 (HTLV-IIIB strain)) [nM] |
| --- | --- | --- |
| Cc1cccc([Se]c2c(C(C)C)c(=O)[nH]c(=S)n2COCc2ccccc2)c1 [Compound 27, 1-[(benzyloxy)methyl]-5-isopropyl-6-[(3-methylphenyl)selenenyl]-2-thiouracil] | 30 | 1.1 |
| Cc1cc(C)cc([Se]c2c(C(C)C)c(=O)[nH]c(=S)n2COCc2ccccc2)c1 [Compound 28, 1-[(benzyloxy)methyl]-6-[(3,5-dimethylphenyl)selenenyl]-5-isopropyl-2-thiouracil] | 30.9 | 5.4 |
| CCOCn1c([Se]c2cccc(C)c2)c(CC)c(=O)[nH]c1=O [Compound 29, 1-(ethoxymethyl)-5-ethyl-6-[(3-methylphenyl)selenenyl]uracil] | 32.1 | 4 |
| CCOCn1c([Se]c2cc(C)cc(C)c2)c(CC)c(=O)[nH]c1=O [Compound 30, 6-[(3,5-dimethylphenyl)selenenyl]-1-(ethoxymethyl)-5-etlyluracil] | 28.9 | 0.6 |
| CCOCn1c([Se]c2cc(F)cc(F)c2)c(CC)c(=O)[nH]c1=O [Compound 32, 6-[(3,5-difluorophenyl)selenenyl]-1-(ethoxymethyl)-5-ethyluracil] | 30.6 | 6 |
| CCc1c([Se]c2cccc(C)c2)n(COCc2ccccc2)c(=O)[nH]c1=O [Compound 37, 1-[(benzyloxy)methyl]-5-ethyl-6-[(3-methylphenyl)selenenyl]uracil] | 28.8 | 0.21 |
| CCc1c([Se]c2cc(C)cc(C)c2)n(COCc2ccccc2)c(=O)[nH]c1=O [Compound 38, 1-[(benzyloxy)methyl]-6-[(3,5-dimethylphenyl)selenenyl]-5-ethyluracil] | 31.7 | 0.08 |
| CCOCn1c([Se]c2ccccc2)c(C(C)C)c(=O)[nH]c1=O [Compound 48, 1-(ethoxymethyl)-5-isopropyl-6-(phenylselenenyl)uracil] | 32.5 | 4.2 |
| CCOCn1c([Se]c2cccc(C)c2)c(C(C)C)c(=O)[nH]c1=O [Compound 49, 1-(ethoxymethyl)-5-isopropyl-6-[(3-methylphenyl)selenenyl]uracil] | 29.2 | 0.7 |
| CCOCn1c([Se]c2cc(C)cc(C)c2)c(C(C)C)c(=O)[nH]c1=O [Compound 50, 6-[(3,5-dimethylphenyl)selenenyl]-1-(ethoxymethyl)-5-isopropyluracil] | 29.2 | 0.07 |
| CCOCn1c([Se]c2cc(F)cc(F)c2)c(C(C)C)c(=O)[nH]c1=O [Compound 51, 6-[(3,5-difluorophenyl)selenenyl]-1-(ethoxymethyl)-5-isopropyluracil] | 27.5 | 1.2 |
| CC(C)c1c([Se]c2ccccc2)n(COCc2ccccc2)c(=O)[nH]c1=O [Compound 52, 1-[(benzyloxy)methyl]-5-isopropyl-6-(phenylselenenyl)uracil] | 29.4 | 0.1 |
| Cc1cccc([Se]c2c(C(C)C)c(=O)[nH]c(=O)n2COCc2ccccc2)c1 [Compound 53, 1-[(benzyloxy)methyl]-5-isopropyl-6-[(3-methylphenyl)selenenyl]uracil] | 30.8 | 0.07 |
| Cc1cc(C)cc([Se]c2c(C(C)C)c(=O)[nH]c(=O)n2COCc2ccccc2)c1 [Compound 54, 1-[(benzyloxy)methyl]-6-[(3,5-dimethylphenyl)selenenyl]-5-isopropyluracil] | 30.2 | 0.021 |
| CCCCn1c([Se]c2ccccc2)c(CC)c(=O)[nH]c1=O [Compound 64, 1-butyl-5-ethyl-6-(phenylselenenyl)uracil] | 27.3 | 40 |
| CCCCn1c([Se]c2cc(C)cc(C)c2)c(CC)c(=O)[nH]c1=O [Compound 65, 1-butyl-6-[(3,5-dimethylphenyl)selenenyl]-5-ethyluracil] | 27.9 | 3 |
| CCc1c([Se]c2ccccc2)n(CCCc2ccccc2)c(=O)[nH]c1=O [Compound 73, 5-ethyl-1-(3-phenylpropyl)-6-(phenylselenenyl)uracil] | 26.1 | 3 |
| CCc1c([Se]c2cc(C)cc(C)c2)n(CCCc2ccccc2)c(=O)[nH]c1=O [Compound 74, 6-[(3,5-dimethylphenyl)selenenyl]-5-ethyl-1-(3-phenylpropyl)-uracil] | 27.7 | 8 |
| CCCCn1c([Se]c2ccccc2)c(C(C)C)c(=O)[nH]c1=O [Compound 81, 1-butyl-5-isopropyl-6-(phenylselenenyl)uracil] | 27.1 | 2 |
